ChEMBL document CHEMBL1201862, “PubChem BioAssay data set” (2004)
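Assay format: 96-well plates, 48-hour exposure. GI50: concentration for 50% inhibition of growth.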 Calls of active or inactive are those of the source. Rule as the data show it: active = GI50 up to about 1.1 µM and inactive = higher.

How the values were obtained:
Assay in all cases: inhibition of tumour cell growth, NCI panel, 48 h
[1] = system: SK-MEL-28
[2] = system: CCRF-CEM
[3] = system: K562
[4] = system: HCC 2998
[5] = system: MOLT-4
[6] = system: HCT-15
[7] = system: OVCAR-4
[8] = system: SF-268
[9] = system: HL-60
[10] = system: NCI-H460
[11] = system: A498
[12] = system: IGROV-1
[13] = system: SNB-19
[14] = system: U-251
[15] = system: SK-OV-3
[16] = system: SK-MEL-2
[17] = system: KM-20L2
[18] = system: NCI-H23
[19] = system: SN12C
[20] = system: XF498

Row | SMILES | GI50 [1] | GI50 [2] | GI50 [3] | GI50 [4] | GI50 [5] | GI50 [6] [µM] | GI50 [7] | GI50 [8] | GI50 [9] | GI50 [10] | GI50 [11] | GI50 [12] | GI50 [13] | GI50 [14] | GI50 [15] | GI50 [16] | GI50 [17] | GI50 [18] | GI50 [19] | GI50 [20]
1 | CC(=O)NC(CCCCNC(=O)OC(C)(C)C)C(=O)O (configuration not stated) | > 100 µM (inactive) | > 100 µM (inactive) | > 100 µM (inactive) | > 100 µM (inactive) | > 100 µM (inactive) | > 100 | > 100 µM (inactive) | > 100 µM (inactive) | > 100 µM (inactive) | > 100 µM (inactive) | 26.1 µM (inactive) | > 100 µM (inactive) | > 100 µM (inactive) | > 100 µM (inactive) |  |  |  |  |  | 
2 | Clc1ccc(C2SCc3nc4ccccc4n32)cc1 (configuration not stated) | 21.2 µM (inactive) | 23.2 µM (inactive) | 15.2 µM (inactive) |  | 18 µM (inactive) | 27.4 |  | 19 µM (inactive) | 5.24 µM (inactive) | 28.9 µM (inactive) | 20.9 µM (inactive) | 14.5 µM (inactive) | 14.8 µM (inactive) | 24 µM (inactive) | 25.4 µM (inactive) | 16 µM (inactive) | 28.2 µM (inactive) | 10.9 µM (inactive) | 17.1 µM (inactive) | 8.2 µM (inactive)
3 | CSC1=C(SC)C(=O)c2cn(C)c(=O)cc2C1=O | 2.82 µM (inactive) | 0.245 µM (active) | 0.399 µM (active) | 17.1 µM (inactive) | 1.08 µM (active) | 2.14 | 1.97 µM (inactive) | 11.8 µM (inactive) | 0.0731 µM (active) | 9.38 µM (inactive) | 15.1 µM (inactive) | 11.1 µM (inactive) | 17.1 µM (inactive) | 10.2 µM (inactive) | 17.5 µM (inactive) | 5.06 µM (inactive) |  | 4.57 µM (inactive) | 3.27 µM (inactive) | 
4 | Cc1cn(C2CC(O)C(Cn3cc(Cn4nc(Br)c(=O)[nH]c4=O)nn3)O2)c(=O)[nH]c1=O (configuration not stated) | > 100 µM (inactive) | 0.332 µM (active) |  | > 100 µM (inactive) | > 100 µM (inactive) | > 100 | > 100 µM (inactive) | > 100 µM (inactive) |  |  | > 100 µM (inactive) |  | > 100 µM (inactive) | > 100 µM (inactive) | > 100 µM (inactive) | > 100 µM (inactive) |  | > 100 µM (inactive) | > 100 µM (inactive) | 
5 | CSCCC(NOC(=O)Cc1ccccc1)P(=O)(O)c1ccccc1 (configuration not stated) | > 100 µM (inactive) | > 100 µM (inactive) | > 100 µM (inactive) | > 100 µM (inactive) | > 100 µM (inactive) | > 100 | > 100 µM (inactive) |  | > 100 µM (inactive) | > 100 µM (inactive) |  | > 100 µM (inactive) | > 100 µM (inactive) | > 100 µM (inactive) | > 100 µM (inactive) | > 100 µM (inactive) |  | > 100 µM (inactive) | > 100 µM (inactive) | 
6 | COc1ccc(NC(=S)NNC(=O)c2nsc3ccccc23)cc1 | 34.3 µM (inactive) |  | 30.9 µM (inactive) | 68.2 µM (inactive) | 24.5 µM (inactive) | 21.8 | 62.2 µM (inactive) | 34.4 µM (inactive) | 19.9 µM (inactive) | 33.5 µM (inactive) |  | 35.1 µM (inactive) | 26.9 µM (inactive) | 40.8 µM (inactive) |  | 25.1 µM (inactive) | 39.1 µM (inactive) | 41.8 µM (inactive) | 31.8 µM (inactive) | 
7 | CC1=CC(O)C(O)C2(C)C1CC1OC(=O)C(O)C3C(C)C(O)C4(O)OCC13C42 (configuration not stated) | 118 µM (inactive) | 7.05 µM (inactive) | 37.2 µM (inactive) | 16.8 µM (inactive) | 12.2 µM (inactive) | 335 | 40.9 µM (inactive) | 133 µM (inactive) | 33 µM (inactive) | 7.82 µM (inactive) | 17.9 µM (inactive) | 15.9 µM (inactive) | 13.7 µM (inactive) | 62.8 µM (inactive) | 49.9 µM (inactive) | 59.2 µM (inactive) | 22.4 µM (inactive) | 49.5 µM (inactive) | 236 µM (inactive) | 53.1 µM (inactive)
8 | COC1CCC(CO)OO1 (configuration not stated) | 52 µM (inactive) | 13.9 µM (inactive) | 4.73 µM (inactive) |  | 33.9 µM (inactive) |  | 45.9 µM (inactive) | 35.8 µM (inactive) | 18.4 µM (inactive) | 24.7 µM (inactive) | 13.1 µM (inactive) | 26.4 µM (inactive) | 41.4 µM (inactive) | 4.57 µM (inactive) | > 100 µM (inactive) | 47.9 µM (inactive) | 23.9 µM (inactive) | 18.8 µM (inactive) |  | 
